Measurements taken from PMC3660367, “MARCKS Protein Is Phosphorylated and Regulates Calcium Mobilization during Human Acrosomal Exocytosis” (PLoS ONE, 2013).
No end group written: not given here.

System: intracellular calcium levels in human spermatozoa
Assay: Intracellular calcium measurement of human spermatozoa (Fluo-3-AM)
Format: cell-based
Conditions: intact sperm, Fluo-3-AM 2 µM; 4 µM ED-TMR 30 min before 15 µM progesterone; three experiments
Procedure: Calcium levels were measured in sperm suspensions using the intracellular fluorescent probe Fluo-3-AM. Motile sperm were adjusted to a concentration of 5–10 ×10^6 cells/ml and loaded with the permeable form of the dye (Fluo-3-AM, 2 µM) for 30 min at 37°C. Cells were washed once and resuspended in HTF. Sperm suspensions were transferred to thermostated (37°C) cuvettes for fluorescence measurements and stirred constantly. At the indicated times, 15 µM progesterone was added to the samples. When indicated, sperm where incubated 30 min in presence of 4 µM of the permeable tetramethylrhodamine-labeled MARCKS ED (ED-TMR) before adding progesterone. Fluo-3 fluorescence (λEx = 505 nm, λEm = 525 nm emission) was recorded in an AMINCO-Bowman Series 2 (AB2) spectrofluorometer. […] To calibrate the maximal response, intracellular calcium concentration ([Ca^2+]i) was determined using Triton X-100 (0.1%). […]
Figure 5 Assessing MARCKS function on acrosomal exocytosis in non-permeabilized sperm. […] The increase in fluorescence is expressed as (F/F0)-1 ((maximum fluorescence intensity/initial fluorescence)-1) versus time in seconds. […] (D) Quantification of three independent experiments. […] Phosphorylated MARCKS was detected by Western blot assay using an anti-phospho-MARCKS antibody. […] Phosphorylated MARCKS was detected by Western blot assay using an anti-phospho-MARCKS antibody. […]

Sequence: KKRFSFKKSFKL (also: tetramethylrhodamine conjugate, site not given here) [ED-TMR, commercial (Anaspec) tetramethylrhodamine-conjugated peptide … from residues 154–165 of human MARCKS ED]
- effect on the increase in calcium levels caused by progesterone: significantly diminished
